Data set [1] relates to 4T1 cells. The data set is described as follows: Cytotoxicity, CCK-8 assay, 4T1. The class given is cell-based, mouse. As to the method:
The CCK-8 assay was used to examine the photodynamic therapeutic effect of SSAs on cell viability against three cell lines. 4×103 4T1 cells per well were seeded in a 96-well plate, and then incubated overnight. The cells were treated with different concentrations of Ppa and SSAs at an equivalent Ppa dose. After 24 h incubation, the medium was replaced with fresh one, and the wells were irradiated using a 660 nm laser with 1 J cm−2. After 24 h, the spent media was replaced and the cell viability was assessed using the CCK-8 reagent. The absorbance at […] of each well was recorded on a microplate reader. Untreated cells were served as a control. Results were presented as the average cell viability by following the manufacturer’s instruction. IC50 values were calculated by using nonlinear regression in software Graphpad Prism7. The cytotoxicity of SSAs and Ppa with or without laser against A549 cell line was also measured through the same procedure.
The cytotoxicity of SSAs and PDP without laser irradiation was also measured by […]
On the technique in general: Tetrazolium assays rely on reduction of a dye to a coloured formazan, in cell work by metabolically active cells.

The nature of data set [2]: In vivo pharmacokinetics. On the set-up: species or system mouse. The settings on record: healthy BALB/c mice, single i.v. 5 mg Ppa kg-1, plasma fluorescence, two-compartment model, mean ± s.d., n = 7. As to the method: 1.3.13 In vivo pharmacokinetics
Healthy pathogen-free BALB/c mice (5-6 weeks, female) were used to determine the pharmacokinetics of SSAs (n = 7). The mice were intravenously injected with Ppa and SSAs (5 mg Ppa kg-1), respectively. Blood (20 μL) was collected at diﬀerent time […]
Plasma was diluted to 50-fold with DMSO for fluorescent measurements using a BioTek plate reader. The pharmacokinetic parameters were calculated using a two-compartment model by WinNonlin 5.2 software. […]

In data set [3] the test system is 4T1 breast tumors. The data set is described as follows: In vivo / ex vivo fluorescence imaging and tumor retention. On the set-up: species or system mouse. The following applies: BALB/c nude mice with 4T1 tumors, i.v. 5 mg Ppa kg-1, in vivo fluorescence imaging up to 14 d, n = 3. An excerpt: Where AS is the absorbance of the sample, A100 is the absorbance of lysed erythrocytes in H2O (a positive control), and A0 is the absorbance of 0% hemolysis in PBS (a negative control).
1.3.12 Skin photosensitization
The backs of healthy BALB/c mice were depilated 3 days before treatment to ensure that all injures had recovered. The shaved mice were randomly divided into 4 groups: (a) SSAs + laser irradiation; (b) Ppa + laser irradiation; (c) laser irradiation; (d) control (without any treatment). The dose of Ppa was 5 mg Ppa kg-1. Right after administration, the anesthetized mice were irradiated by a 660 nm laser (0.26 W cm-2, […], 108 J cm-2). […] The degree of skin response was examined and scored according to Table S5, and Paraffin sections of the skin were stained with hematoxylin and eosin (H&E) according to the manufacturer's instructions.[3] […]
Plasma was diluted to 50-fold with DMSO for fluorescent measurements using a BioTek plate reader. The pharmacokinetic parameters were calculated using a two-compartment model by WinNonlin 5.2 software.
1.3.14 In vivo fluorescence imaging and biodistribution […]
Fluorescence signals were detected at 1 h, 3 h, 12h, 24 h, 2 d, 3 d, 5 d, 7 d, 9 d, 11 d […]
and 14 d post-intravenous injection by a small-animal in vivo fluorescence imaging system (CRi Maestro EX, USA) with excitation at […]. […]

SMILES strings stand for the structures. Several values for one entry are separate records, joined by “and”; a condition that tells them apart may be missing. Equal entries are not always repeated.

With `C=Cc1c(C)c2cc3nc(c4c5[nH]c(cc6nc(cc1[nH]2)C(C)=C6CC)c(C)c5C(=O)C4)[C@@H](CCC(=O)O)[C@@H]3C` [Ppa, pyropheophorbide a], the “Cytotoxicity with laser irradiation” value in data set [1] (24 h incubation, 660 nm laser, CCK-8, n = 3) was “notable cytotoxicity”. Also, the “Concentration above which very cytotoxic without irradiation” value in data set [1] (no light, CCK-8) is recorded as “higher than 1 µg mL^−1”. For the same molecule, in data set [2], the “AUC (area under the drug concentration)” value was 2600 ± 110 ng·h/mL; the “MRT (mean residence time)” value was determined as 3.64 ± 1.02 h; the “t1/2 (half-life of the drug)” value is 4.29 ± 0.47 h and 4.29 h. Moreover, in data set [3], the “Persistence of the fluorescence signal in tumors” value is recorded as “disappear on day 3 after injection”.

The record behind these values is paper PMC8596125, “Self‐Stabilized Supramolecular Assemblies Constructed from PEGylated Dendritic Peptide Conjugate for Augmenting Tumor Retention and Therapy” (Advanced Science, 2021).
